From patent US9751869B2, “LXR modulators” (BRISTOL-MYERS SQUIBB COMPANY, priority 2013, dated 2017)
pEC50: −log10 of the molar value.

Target: T1, LXRβ (Homo sapiens, UniProt P55055)
T1 construct: Co-transfection expression plasmids, comprising full-length LXRα (pCMX-h LXRα or LXRβ (pCMX-hLXRβ)); expressed in transfected cells; host or cells: CV-1 African green monkey kidney cells, transient transfection with pCMX-hLXRβ
T1 sequence (P55055 1-460): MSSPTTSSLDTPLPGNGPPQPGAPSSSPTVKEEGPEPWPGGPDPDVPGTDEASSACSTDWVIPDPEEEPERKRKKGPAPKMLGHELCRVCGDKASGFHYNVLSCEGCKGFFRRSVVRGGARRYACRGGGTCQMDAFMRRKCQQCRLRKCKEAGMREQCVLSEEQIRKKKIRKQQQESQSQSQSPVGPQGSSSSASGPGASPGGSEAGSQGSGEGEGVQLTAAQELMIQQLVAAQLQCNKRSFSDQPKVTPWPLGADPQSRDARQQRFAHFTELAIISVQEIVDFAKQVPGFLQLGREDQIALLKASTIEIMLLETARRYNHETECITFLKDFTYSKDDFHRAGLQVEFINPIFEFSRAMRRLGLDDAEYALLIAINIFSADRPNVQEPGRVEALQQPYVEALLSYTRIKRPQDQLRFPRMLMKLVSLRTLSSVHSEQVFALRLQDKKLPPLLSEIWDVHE
T1 sequence (P19793 1-462 partner): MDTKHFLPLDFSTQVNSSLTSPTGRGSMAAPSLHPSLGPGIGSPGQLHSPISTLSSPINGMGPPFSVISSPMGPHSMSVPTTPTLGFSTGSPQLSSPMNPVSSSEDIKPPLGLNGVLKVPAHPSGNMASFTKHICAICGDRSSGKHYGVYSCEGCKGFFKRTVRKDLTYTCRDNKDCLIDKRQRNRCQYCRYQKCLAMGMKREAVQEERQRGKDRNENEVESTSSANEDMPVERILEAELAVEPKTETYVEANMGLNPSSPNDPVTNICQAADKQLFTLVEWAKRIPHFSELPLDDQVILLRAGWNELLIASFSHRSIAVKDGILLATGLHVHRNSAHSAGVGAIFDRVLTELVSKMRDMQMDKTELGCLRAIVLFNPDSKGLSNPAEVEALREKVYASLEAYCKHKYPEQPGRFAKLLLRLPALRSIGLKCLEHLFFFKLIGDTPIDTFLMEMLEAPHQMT
Experiment: LXR/LXRE co-transfection assay (luciferase reporter) in CV-1 cells, LXRβ
Format: cell-based
Settings: for pEC50: CV-1 cells transfected with pCMX-hLXRβ and LXREx1-Tk-Luciferase, 20 hours incubation, read-out: LXRbeta agonism EC50; for Emax: read-out: LXRbeta % EFFICACY
From the text: To measure the ability of compounds to activate or inhibit the transcriptional activity of LXR in a cell based assay, the co-transfection assay was used. It has been shown that LXR functions as a heterodimer with RXR. For the co-transfection assay, expression plasmids for LXRα and LXRβ are introduced separately via transient transfection into mammalian cells along with a luciferase reporter plasmid that contains one copy of a DNA sequence that is bound by LXR-RXR heterodimers (LXRE; Willy, P. et. al. 1995). LXRs heterodimerize with the endogenous RXR. Treatment of transfected cells with an LXR agonist increases the transcriptional activity of LXR, which is measured by an increase in luciferase activity.
Co-transfection expression plasmids, comprising full-length LXRα (pCMX-h LXRα or LXRβ (pCMX-hLXRβ), reporter plasmid (LXREx1-Tk-Luciferase), and control (pCMX-Galactosidase expression vector) (Willey et al. Genes & Development 9 1033-1045 (1995)).
CV-1 cells were prepared 24 hours prior to the experiment by plating them into T-175 flasks or 500 cm^2 dishes in order to achieve 70-80% confluency on the day of the transfection. The number of cells to be transfected was determined by the number of plates to be screened. Each well of a 384 well plate requires 1.5×10^4 cells. DNA Transfection Reagent was prepared by mixing the required plasmid DNAs with a cationic lipid transfection reagent Transit 2020 (Mirus Bio) for CV1 by following the instructions provided with the reagents. Optimal DNA amounts were determined empirically per cell line and size of vessel to be transfected. For each T175 cm^2 flask a total of 44.4 ug for CV1 of DNA, 133 ul Transit2020 and 4.5 ml DMEM for CV1 was mixed and added. Cells were then incubated at least 5 hours at 37° C. to prepare screening cells.
Assay plates were prepared by dispensing 5 μL of compound per well of a 384 well plate to achieve final compound concentration of 10 μM and no more than 0.5% DMSO. Media was removed from the screening cells, the cells trypsinized, harvested cells by centrifugation, counted, and plated at a density of approximately 1.5×10^4 cells in the 384 well assay plate prepared above in a volume of about 95 uL. Assay plates containing both compounds and screening cells (100 μL in total volume) were incubated for 20 hours at 37° C.
After incubation with compounds, media was removed from the cells and luciferase assay reagent (30 μL/well) added. After ˜2 minutes at ambient temperature, the assay plates were read on a luminometer (PE Biosystems Northstar reader with on-board injectors, or Envision (Perkin Elmer) or equivalent).
The LXR/LXRE co-transfection assay can be used to establish the EC50/IC50 values for potency and percent activity or inhibition for efficacy. Efficacy defines the activity of a compound relative to a high control ((N-(3-((4-fluorophenyl)-(naphthalene-2-sulfonyl)amino)propyl)-2,2-dimethylpropionamide)) or a low control (DMSO/vehicle). The dose response curves are generated from a 10 point curve with concentrations differing by ½ LOG units. Each point represents the average of 4 wells of data from a 384 well plate.
The data from this assay is fitted to the following equation, from which the EC50 value may be solved: Y=Bottom+(Top−Bottom)/(1+10^((log EC50-X)*HillSlope)).
The EC50/IC50 is therefore defined as the concentration at which an agonist or antagonist elicits a response that is halfway between the Top (maximum) and Bottom (baseline) values. The EC50/IC50 values represented are the averages of at least 2 and normally 3 independent experiments. The determination of the relative efficacy or % control for an agonist is by comparison to the maximum response achieved by ((N-(3-((4-fluorophenyl)-(naphthalene-2-sulfonyl)-amino)propyl)-2,2-dimethylpropionamide) that is measured individually in each dose response experiment.
Table 1 lists LXRβ EC50 values and % efficacy measurements in the cotransfection assay for examples of this invention.

[1] = CV-1 cells, relative to maximum response of high control N-(3-((4-fluorophenyl)-(naphthalene-2-sulfonyl)amino)propyl)-2,2-dimethylpropionamide

| pEC50 | Emax [1] [%] | LXRbeta % EFFICACY [1] [%] | SMILES |
| --- | --- | --- | --- |
| 8.40 | 98 | – | Cc1nc(-c2cc(F)c(OC(F)F)c(F)c2)c(-c2cc(-c3cc(F)c(CO)c(S(C)(=O)=O)c3)ccc2-n2cc(Cl)c(C(F)(F)F)n2)o1 [Example 422, (4′-(4-chloro-3-(trifluoromethyl)-1H-pyrazol-1-yl)-3′-(4-(4-(difluoromethoxy)-3,5-difluorophenyl)-2-methyloxazol-5-yl)-3-fluoro-5-(methylsulfonyl)-[1,1′-biphenyl]-4-yl)methanol] |
| 6.52 | 80 | – | Cc1nc(-c2ccc(OC(F)(F)F)cc2)c(-c2cc(-c3cc(F)cc(S(C)(=O)=O)c3)ccc2-n2ccc(C(F)(F)F)n2)o1 [Example 334, 5-(3′-fluoro-5′-(methylsulfonyl)-4-(3-(trifluoromethyl)-1H-pyrazol-1-yl)biphenyl-3-yl)-2-methyl-4-(4-(trifluoromethoxy)phenyl)oxazole] |
| 6.14 | 74 | – | Cc1nc(-c2cc(-c3cccc(C4(C(N)=O)CC4)c3)ccc2-n2nc(C(F)(F)F)cc2Cl)c(-c2ccc(OC(F)(F)F)cc2)o1 [Example 418, 1-(4′-(5-chloro-3-(trifluoromethyl)-1H-pyrazol-1-yl)-3′-(2-methyl-5-(4-(trifluoromethoxy)phenyl)oxazol-4-yl)-[1,1′-biphenyl]-3-yl) cyclopropanecarboxamide] |
| 8.40 | 71 | – | Cc1nc(-c2ccc3c(c2)OC(F)(F)O3)c(-c2cc(-c3cccc(S(C)(=O)=O)c3)ccc2-n2cc(Cl)c(C(F)(F)F)n2)o1 [Example 419, 5-(4-(4-chloro-3-(trifluoromethyl)-1H-pyrazol-1-yl)-3′-(methylsulfonyl)-[1,1′-biphenyl]-3-yl)-4-(2,2-difluorobenzo[d][1,3]dioxol-5-yl)-2-methyloxazole] |
| 7.03 | 35 | – | Cc1nc(-c2ccc3c(c2)OC(F)(F)O3)c(-c2cc(-c3cccc(S(C)(=O)=O)c3)ccc2-c2cc(C#N)nn2C)o1 [Example 123, 5-(3-(4-(2,2-difluorobenzo[d][1,3]dioxol-5-yl)-2-methyloxazol-5-yl)-3′-(methylsulfonyl)-[1,1′-biphenyl]-4-yl)-1-methyl-1H-pyrazole-3-carbonitrile] |
| 7.62 | 99 | – | Cc1nc(-c2ccc(OC(F)F)nc2)c(-c2cc(-c3cccc(S(C)(=O)=O)c3)ccc2-n2cc(Cl)c(C(F)(F)F)n2)o1 [Example 425] |
| 6.95 | – | 56 | Cc1nc(-c2ccc3c(c2)OC(F)(F)O3)c(-c2cc(-c3cccc(S(C)(=O)=O)c3)ccc2-c2cc(C(C)OC(N)=O)nn2C)o1 (centres unmarked) [Example 130, 1-(5-(3-(4-(2,2-difluorobenzo[d][1,3]dioxol-5-yl)-2-methyloxazol-5-yl)-3′-(methylsulfonyl)-[1,1′-biphenyl]-4-yl)-1-methyl-1H-pyrazol-3-yl)ethyl carbamate] |
| 5.97 | 61 | – | Cc1nc(-c2ccc(OC(F)(F)F)cc2)c(-c2cc(-c3cccc(C4(C(N)=O)CC4)c3)ccc2-n2nc(C(F)(F)F)cc2Cl)o1 [Example 381, 1-(4′-(5-chloro-3-(trifluoromethyl)-1H-pyrazol-1-yl)-3′-(2-methyl-4-(4-(trifluoromethoxy)phenyl)oxazol-5-yl)-[1,1′-biphenyl]-3-yl) cyclopropanecarboxamide] |
| 6.58 | 55 | – | Cc1nc(-c2ccc(OC(F)(F)F)cc2)c(-c2cc(-c3cccc(S(C)(=O)=O)c3)ccc2-n2ccc(C(C)O)n2)o1 (single isomer, unassigned) [Example 367, 1-(1-(3-(2-methyl-4-(4-(trifluoromethoxy)phenyl)oxazol-5-yl)-3′-(methylsulfonyl)-[1,1′-biphenyl]-4-yl)-1H-pyrazol-3-yl)ethanol] |
| 7.82 | 29 | – | Cc1nc(-c2ccc(OC(F)(F)F)cc2)c(-c2cc(-c3ccc(CO)c(S(C)(=O)=O)c3)ccc2-n2ccc(C(C)(C)C#N)n2)o1 [Example 378, 2-(1-(4′-(hydroxymethyl)-3-(2-methyl-4-(4-(trifluoromethoxy)phenyl)oxazol-5-yl)-3-(methylsulfonyl)-[1,1′-biphenyl]-4-yl)-1H-pyrazol-3-yl)-2-methylpropanenitrile] |
| 6.59 | 33 | – | Cc1nc(-c2ccc3c(c2)OC(F)(F)O3)c(-c2cc(-c3cc(F)c(CO)c(S(C)(=O)=O)c3)ccc2-c2cc(C(=O)NCC(F)(F)F)nn2C)o1 [Example 112, 5-(3-(4-(2,2-difluorobenzo[d][1,3]dioxol-5-yl)-2-methyloxazol-5-yl)-3′-fluoro-4′-(hydroxymethyl)-5′-(methylsulfonyl)-[1,1′-biphenyl]-4-yl)-1-methyl-N-(2,2,2-trifluoroethyl)-1H-pyrazole-3-carboxamide] |
| 6.53 | 53 | – | Cc1nc(-c2ccc3c(c2)OC(F)(F)O3)c(-c2cc(-c3cccc(S(C)(=O)=O)c3)ccc2-c2cc(C(C)(C)O)nn2C)o1 [Example 54, 2-(5-(3-(4-(2,2-difluorobenzo[d][1,3]dioxol-5-yl)-2-methyloxazol-5-yl)-3′-(methylsulfonyl)biphenyl-4-yl)-1-methyl-1H-pyrazol-3-yl)propan-2-ol] |
| 6.30 | 62 | – | Cc1nc(-c2ccc3c(c2)OC(F)(F)O3)c(-c2cc(-c3cc(F)c(CO)c(S(C)(=O)=O)c3)ccc2-c2cc(C(F)(F)C(=O)N3CCCC3)nn2C)o1 [Example 83, 2-(5-(3-(4-(2,2-difluorobenzo[d][1,3]dioxol-5-yl)-2-methyloxazol-5-yl)-3′-fluoro-4′-(hydroxymethyl)-5′-(methylsulfonyl)-[1,1′-biphenyl]-4-yl)-1-methyl-1H-pyrazol-3-yl)-2,2-difluoro-1-(pyrrolidin-1-yl)ethanone] |
